pIC50: −log10 of the molar value.
These compounds were tested against T1, USP19 (Homo sapiens, UniProt O94966) (assay: USP19 fluorescence polarisation (FP) homogeneous assay). Details: Ubiquitin-Lys-TAMRA substrate, full-length USP19 2.5 nM, average of at least two duplicate experiments.
T1 sequence (O94966 1-1318): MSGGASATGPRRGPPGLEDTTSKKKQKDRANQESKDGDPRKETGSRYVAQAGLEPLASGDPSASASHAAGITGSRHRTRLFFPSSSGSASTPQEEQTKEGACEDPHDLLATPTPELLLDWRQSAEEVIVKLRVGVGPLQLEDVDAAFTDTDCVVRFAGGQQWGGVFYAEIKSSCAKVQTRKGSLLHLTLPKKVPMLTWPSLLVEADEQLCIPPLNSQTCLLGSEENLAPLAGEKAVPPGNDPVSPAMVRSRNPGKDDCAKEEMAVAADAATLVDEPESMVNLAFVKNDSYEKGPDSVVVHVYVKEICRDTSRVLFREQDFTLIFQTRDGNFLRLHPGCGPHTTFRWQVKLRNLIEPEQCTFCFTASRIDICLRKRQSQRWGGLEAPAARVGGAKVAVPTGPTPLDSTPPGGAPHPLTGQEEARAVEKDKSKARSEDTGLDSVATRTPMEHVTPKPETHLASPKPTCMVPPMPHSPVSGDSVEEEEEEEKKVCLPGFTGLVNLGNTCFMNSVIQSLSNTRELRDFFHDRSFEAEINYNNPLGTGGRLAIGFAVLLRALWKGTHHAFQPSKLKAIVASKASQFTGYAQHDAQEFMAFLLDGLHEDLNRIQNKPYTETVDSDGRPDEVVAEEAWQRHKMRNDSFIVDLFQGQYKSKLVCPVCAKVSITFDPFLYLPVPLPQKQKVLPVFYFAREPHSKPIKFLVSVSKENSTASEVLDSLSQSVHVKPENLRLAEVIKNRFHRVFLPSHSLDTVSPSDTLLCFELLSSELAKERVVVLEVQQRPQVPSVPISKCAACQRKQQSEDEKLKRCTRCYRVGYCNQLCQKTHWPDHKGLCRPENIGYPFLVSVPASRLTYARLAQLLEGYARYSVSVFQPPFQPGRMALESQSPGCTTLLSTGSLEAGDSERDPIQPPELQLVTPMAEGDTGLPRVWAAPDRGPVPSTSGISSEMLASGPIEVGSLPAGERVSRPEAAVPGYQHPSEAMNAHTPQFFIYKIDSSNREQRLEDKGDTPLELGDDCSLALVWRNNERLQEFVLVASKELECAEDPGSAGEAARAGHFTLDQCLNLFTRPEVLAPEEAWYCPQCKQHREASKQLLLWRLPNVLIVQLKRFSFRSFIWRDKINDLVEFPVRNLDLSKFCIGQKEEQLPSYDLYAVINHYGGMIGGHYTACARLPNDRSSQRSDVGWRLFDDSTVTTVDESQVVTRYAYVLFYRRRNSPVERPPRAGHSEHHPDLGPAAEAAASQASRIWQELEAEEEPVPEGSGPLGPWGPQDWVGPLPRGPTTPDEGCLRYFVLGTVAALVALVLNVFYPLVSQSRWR
Format: biochemical
Parameters: Full-length USP19 was purchased from Boston Biochem (E-576); purchased Boston Biochem E-576
Method: Unless otherwise stated, all other reagents were purchased from Sigma. Enzymatic reactions were conducted in black flat bottom polystyrene 384-well plates (Nunc) and 30 μL total volume. […] Inhibitors were stored as 10 mM DMSO stocks in an inert environment (low humidity, dark, low oxygen, room temperature) using the Storage Pod System and serial dilutions were prepared in buffer just prior to the assay (from 200 μM to 2 μM, 8-18 data point curve). Following incubation at RT for 30 min, the enzymatic reactions were initiated by dispensing the Ub substrate (500 nM, 10 μL). FP was measured every 15 min over a period of 90 min (within the linear range of the assay) using a Synergy 4 plate reader (BioTek) exciting at 530 nm and measuring the amount of parallel and perpendicular light at 575 nm. The FP signal was subsequently normalised to the no compound control.

| Compound | pIC50 |
| --- | --- |
| 3-(((S)-10-Hydroxy-7-((2R,3R)-2-phenylpyrrolidine-3-carbonyl)-7-azaspiro[4.5]decan-10-yl)methyl)-6-phenylpyrimidin-4(3H)-one and 3-(((S)-10-Hydroxy-7-((2a3S)-2-phenylpyrrolidine-3-carbonyl)-7-azaspiro[4.5]decan-10-yl)methyl)-6-phenylpyrimidin-4(3H)-one [Example 260] | > 6.30 |
| CC(n1cnc(-c2ccccc2)cc1=O)C1(O)CCN(C(=O)C[C@@H](C)c2ccccc2)CC1 (mixture of isomers) [Example 47, 3-((R)-1-(4-Hydroxy-1-((R)-3-phenylbutanoyl)piperidin-4-yl)ethyl)-6-phenylpyrimidin-4(3H)-one and 3-((S)-1-(4-hydroxy-1-((R)-3-phenylbutanoyl)piperidin-4-yl)ethyl)-6-phenylpyrimidin-4(3H)-one] | 3.60 to 4.30 |
| C[C@H](CC1CCCCC1)C(=O)N1CCC(O)(Cn2cnc(-c3ccccc3F)cc2=O)C2(CCC2)C1 (mixture of isomers) [Example 51, 3-(((R)-6-((R)-3-Cyclohexyl-2-methylpropanoyl)-9-hydroxy-6-azaspiro[3.5]nonan-9-yl)methyl)-6-(2-fluorophenyl)pyrimidin-4(3H)-one and 3-(((S)-6-((R)-3-Cyclohexyl-2-methylpropanoyl)-9-hydroxy-6-azaspiro[3.5]nonan-9-yl)methyl)-6-(2-fluorophenyl)pyrimidin-4(3H)-one] | 5.30 to 6.30 |
| C[C@H](CC(=O)N1CCC(O)(Cn2cnc(-c3ccccc3)cc2=O)C(C)(C)C1)c1ccccc1 (mixture of isomers) [Example 53, 3-(((S)-4-Hydroxy-3,3-dimethyl-1-((R)-3-phenylbutanoyl)piperidin-4-yl)methyl)-6-phenylpyrimidin-4(3H)-one and 3-(((R)-4-hydroxy-3,3-dimethyl-1-((R)-3-phenylbutanoyl)piperidin-4-yl)methyl)-6-phenylpyrimidin-4(3H)-one] | 5.30 to 6.30 |
| C[C@H](CC(=O)N1CCC(O)(Cn2cnc(-c3ccccc3)cc2=O)CC1(C)C)c1ccccc1 (mixture of isomers) [Example 61, 3-(((R)-4-Hydroxy-2,2-dimethyl-1-((R)-3-phenylbutanoyl)piperidin-4-yl)methyl)-6-phenylpyrimidin-4(3H)-one and 3-(((S)-4-Hydroxy-2,2-dimethyl-1-((R)-3-phenylbutanoyl)piperidin-4-yl)methyl)-6-phenylpyrimidin-4(3H)-one] | 3.60 to 4.30 |
| CC(CC1CCC1)C(=O)N1CCC(O)(Cn2cc(C(=O)N3CCCCC3)c(-c3ccccc3)cc2=O)CC1 (racemic) [Example 15, (R,S)-1-((3-Cyclobutyl-2-methylpropanoyl)-4-hydroxypiperidin-4-yl)methyl)-4-phenyl-5-(piperidine-1-carbonyl)pyridin-2(1H)-one] | 4.30 to 5.30 |
| CCC(n1cnc(-c2ccccc2)cc1=O)C1(O)CCN(C(=O)[C@H](C)CC2CCCCC2)CC1 (stereo partly drawn) [Example 43, 3-((S)-1-(1-((R)-3-Cyclohexyl-2-methylpropanoyl)-4-hydroxypipendin-4-yl)propyl)-6-phenylpyrimidin-4(3H)-one and 3-((R)-1-(1-((R)-3-cyclohexyl-2-methylpropanoyl)-4-hydroxypipendin-4-yl)propyl)-6-phenylpyrimidin-4(3H)-one] | 4.30 to 5.30 |
| C[C@H](CC1CCCCC1)C(=O)N1CC[C@@](O)(Cn2cc(C(=O)N(C)C)c(-c3ccccc3)cc2=O)C(C)(C)C1 [Example 121, 1-(((S)-1-((R)-3-Cyclohexyl-2-methylpropanoyl)-4-hydroxy-3,3-dimethylpiperidin-4-yl)methyl)-N,N-dimethyl-6-oxo-4-phenyl-1,6-dihydropyridine-3-carboxamide] | > 6.30 |
| C[C@H](CC1CCCCC1)C(=O)N1CC[C@@](O)(Cn2cc(C(=O)N3CCCC3)c(-c3ccccc3)cc2=O)C(C)(C)C1 [Example 123, 1-(((S)-1-((R)-3-Cyclohexyl-2-methylpropanoyl)-4-hydroxy-3,3-dimethylpiperidin-4-yl)methyl)-4-phenyl-5-(pyrrolidine-1-carbonyl)pyridin-2(1H)-one] | > 6.30 |
| C[C@H](CC1CCCCC1)C(=O)N1CC[C@@](O)(Cn2cc(C(=O)N3CCNCC3)c(-c3ccccc3)cc2=O)C(C)(C)C1 [Example 124, 1-(((S)-1-((R)-3-Cyclohexyl-2-methylpropanoyl)-4-hydroxy-3,3-dimethylpiperidin-4-yl)methyl)-4-phenyl-5-(piperazine-1-carbonyl)pyridin-2(1H)-one] | > 6.30 |
| C[C@H](CC1CCCCC1)C(=O)N1CCC(O)(Cn2cnc(-c3ccsc3)cc2=O)C(C)(C)C1 (some centres unmarked) [Example 135] | > 6.30 |
| C[C@H](CC1CCCCC1)C(=O)N1CCC(O)(Cn2cnc(-c3cccc(CO)c3)cc2=O)C(C)(C)C1 (some centres unmarked) [Example 138] | > 6.30 |

The next lines start with the values.

| pIC50 | Compound |
| --- | --- |
| > 6.30 | C[C@H](CC1CCCCC1)C(=O)N1CCC(O)(Cn2cnc(-c3ccccc3)cc2=O)C(C)(C)C1 (mixture of isomers) [Example 50, 3-(((R)-1-((R)-3-Cyclohexyl-2-methylpropanoyl)-4-hydroxy-3,3-dimethylpiperidin-4-yl)methyl)-6-phenylpyrimidin-4(3H)-one and 3-(((S)-1-((R)-3-Cyclohexyl-2-methylpropanoyl)-4-hydroxy-3,3-dimethylpiperidin-4-yl)methyl)-6-phenylpyrimidin-4(3H)-one] |
| > 6.30 | CC(C)N(C)C(=O)c1cn(CC2(O)CCN(C(=O)[C@H](C)CC3CCCCC3)CC2(C)C)c(=O)cc1-c1ccccc1 (mixture of isomers) [Example 73, 1-(((R)-1-((R)-3-Cyclohexyl-2-methylpropanoyl)-4-hydroxy-3,3-dimethylpiperidin-4-yl)methyl)-N-isopropyl-N-methyl-6-oxo-4-phenyl-1,6-dihydropyridine-3-carboxamide and 1-(((S)-1-((R)-3-Cyclohexyl-2-methylpropanoyl)-4-hydroxy-3,3-dimethylpiperidin-4-yl)methyl)-N-isopropyl-N-methyl-6-oxo-4-phenyl-1,6-dihydropyridine-3-carboxamide] |
| > 6.30 | O=C([C@@H]1CNC[C@H]1c1ccccc1)N1CC[C@@](O)(Cn2cnc(-c3ccccc3)cc2=O)C2(CCCC2)C1 (mixture of isomers) [Example 259, 3-(((S)-10-Hydroxy-7-((3S,4R)-4-phenylpyrrolidine-3-carbonyl)-7-azaspiro[4.5]decan-10-yl)methyl)-6-phenylpyrimidin-4(3H)-one and 3-(((S)-10-Hydroxy-7-((3R,4S)-4-phenylpyrrolidine-3-carbonyl)-7-azaspiro[4.5]decan-10-yl)methyl)-6-phenylpyrimidin-4(3H)-one] |
| > 6.30 | C[C@H](CC1CCCCC1)C(=O)N1CCC(O)(Cn2cnc(-c3ccccc3F)cc2=O)C2(CCCC2)C1 (stereo partly drawn) [Example 119, 3-((7-((R)-3-Cyclohexyl-2-methylpropanoyl)-10-hydroxy-7-azaspiro[4.5]decan-10-yl)methyl)-6-(2-fluorophenyl)pyrimidin-4(3H)-one] |
| > 6.30 | CC(C)N(C)C(=O)c1cn(C[C@]2(O)CCN(C(=O)[C@H](C)CC3CCCCC3)CC2(C)C)c(=O)cc1-c1ccccc1 [Example 120, 1-(((S)-1-((R)-3-Cyclohexyl-2-methylpropanoyl)-4-hydroxy-3,3-dimethylpiperidin-4-yl)methyl)-N-isopropyl-N-methyl-6-oxo-4-phenyl-1,6-dihydropyridine-3-carboxamide] |

— patent US20220016115A1, “USP19 INHIBITORS FOR USE IN THERAPY” (ALMAC DISCOVERY LIMITED, priority 2018, published 2022)
